Each structure is given as a SMILES string. Where two headings read alike, the source gives them in different places.

What all share (test): cells
Format in all cases: cell-based

For one assay, the system named is DLD-1. To be noted: for IC50: read-out: Basal_Viability ATP DLD-1 summarized IC50.
A further assay deals with HT-29. To be noted: for IC50: read-out: Basal_Viability ATP HT-29 summarized IC50.
Another assay relates to SW480. To be noted: for IC50: read-out: Basal_Viability ATP SW480 summarized IC50.
The next assay relates to Colo320. To be noted: for IC50: read-out: Basal_Viability ATP Colo 320 summarized IC50.
The next assay concerns RKO. The following applies: for IC50: read-out: Basal_Viability ATP RKO summarized IC50.
Another assay concerns SNU-C1. The following applies: for IC50: read-out: Basal_Viability ATP SNU-C1 summarized IC50.
In a further assay the test system is HCT116. To be noted: for IC50: read-out: Basal_Viability ATP HCT116 summarized IC50.

As to `CCc1cccc2c3c([nH]c12)C(CC)(CC(=O)O)OCC3` (stereo not drawn) [NCGC00015399-16], the “Basal_Viability ATP DLD-1 IC50/EC50” value in the assay on DLD-1 (assay number 23, basal) is given as over 20 µM. Further, in the assay with HT-29 (assay number 28, basal), the “Basal_Viability ATP HT-29 IC50/EC50” value was over 20 µM. The “Basal_Viability ATP SW480 IC50/EC50” value in the assay on SW480 (assay number 24, basal) was over 20 µM. Moreover, in the assay with Colo320 (assay number 27, basal), the “Basal_Viability ATP Colo 320 IC50/EC50” value is over 20 µM. In addition, in the assay with RKO (assay number 29, basal), the “Basal_Viability ATP RKO IC50/EC50” value is recorded as over 20 µM. For the same compound, the “Basal_Viability ATP SNU-C1 IC50/EC50” value in the assay with SNU-C1 (assay number 30, basal) was over 20 µM. The “Basal_Viability ATP HCT116 IC50/EC50” value with HCT116 (assay number 25, basal) is on record as over 20 µM.
With `Cc1c(NC(=O)c2cccnc2)c(=O)n(-c2ccccc2)n1C` [NCGC00016605-08], the “IC50/EC50, Basal_Viability ATP DLD-1 (assay number 23)” value in the assay with DLD-1 (basal) is recorded as over 20 µM. Also, the “IC50/EC50, Basal_Viability ATP HT-29 (assay number 28)” value in the assay with HT-29 (basal) was over 20 µM. The “IC50/EC50, Basal_Viability ATP SW480 (assay number 24)” value in the assay on SW480 (basal) was over 20 µM. In addition, the “IC50/EC50, Basal_Viability ATP Colo 320 (assay number 27)” value in the assay on Colo320 (basal) is reported as over 20 µM. For the same compound, the “IC50/EC50, Basal_Viability ATP RKO (assay number 29)” value with RKO (basal) is over 20 µM. In addition, the “IC50/EC50, Basal_Viability ATP SNU-C1 (assay number 30)” value in the assay on SNU-C1 (basal) is recorded as over 20 µM. In the assay with HCT116 (basal), the “IC50/EC50, Basal_Viability ATP HCT116 (assay number 25)” value is over 20 µM.
In the case of `O=C(O)c1ccccc1OP(=O)(O)O` [NCGC00016668-06], the IC50 in the assay with DLD-1 (assay number 23, basal) was over 20 µM; in the assay on HT-29 (assay number 28, basal), over 20 µM; in the assay with SW480 (assay number 24, basal), over 20 µM; with Colo320 (assay number 27, basal), over 20 µM; in the assay with RKO (assay number 29, basal), over 20 µM; in the assay on SNU-C1 (assay number 30, basal), over 20 µM. In the assay with HCT116 (assay number 25, basal), the IC50 is over 20 µM.
For the compound `CCn1cc(C(=O)O)c(=O)c2cnc(N3CCNCC3)nc21` [NCGC00016866-11], in the assay with DLD-1 (assay number 23, basal), the “Basal_Viability ATP DLD-1 IC50/EC50” value was over 20 µM. The “Basal_Viability ATP HT-29 IC50/EC50” value in the assay with HT-29 (assay number 28, basal) is over 20 µM. In the assay on SW480 (assay number 24, basal), the “Basal_Viability ATP SW480 IC50/EC50” value was over 20 µM. Also, the “Basal_Viability ATP Colo 320 IC50/EC50” value in the assay on Colo320 (assay number 27, basal) is recorded as over 20 µM. Also, the “Basal_Viability ATP RKO IC50/EC50” value in the assay with RKO (assay number 29, basal) is given as over 20 µM. In addition, the “Basal_Viability ATP SNU-C1 IC50/EC50” value with SNU-C1 (assay number 30, basal) was over 20 µM. In the assay on HCT116 (assay number 25, basal), the “Basal_Viability ATP HCT116 IC50/EC50” value is on record as over 20 µM.
Take `O=C(O)c1ccccc1S` [NCGC00018107-05]: the IC50 was over 20 µM in the assay with DLD-1 (assay number 23, basal); over 20 µM in the assay on HT-29 (assay number 28, basal); over 20 µM with SW480 (assay number 24, basal); over 20 µM in the assay on Colo320 (assay number 27, basal); over 20 µM in the assay on RKO (assay number 29, basal); over 20 µM with SNU-C1 (assay number 30, basal). Besides, the IC50 in the assay on HCT116 (assay number 25, basal) is over 20 µM.
For `Cc1ccc(Cl)c(Nc2ccccc2C(=O)[O-])c1Cl.[Na+]` [NCGC00023217-08], in the assay with DLD-1 (assay number 23, basal), the “Basal_Viability ATP DLD-1 IC50/EC50” value is 15.1129 µM. Also, the “Basal_Viability ATP HT-29 IC50/EC50” value with HT-29 (assay number 28, basal) is given as over 20 µM. Also, the “Basal_Viability ATP SW480 IC50/EC50” value with SW480 (assay number 24, basal) is on record as over 20 µM. Moreover, in the assay with Colo320 (assay number 27, basal), the “Basal_Viability ATP Colo 320 IC50/EC50” value is listed as over 20 µM. The “Basal_Viability ATP RKO IC50/EC50” value with RKO (assay number 29, basal) was over 20 µM. For the same compound, the “Basal_Viability ATP SNU-C1 IC50/EC50” value in the assay on SNU-C1 (assay number 30, basal) is over 20 µM. Further, the “Basal_Viability ATP HCT116 IC50/EC50” value in the assay with HCT116 (assay number 25, basal) is reported as over 20 µM.
As to `NC(=O)N/N=C/c1ccc([N+](=O)[O-])o1` [NCGC00090686-11], the IC50 in the assay with DLD-1 (assay number 23, basal) was over 20 µM; in the assay with HT-29 (assay number 28, basal), over 20 µM; in the assay with SW480 (assay number 24, basal), over 20 µM; in the assay on Colo320 (assay number 27, basal), over 20 µM; in the assay on RKO (assay number 29, basal) it was over 20 µM; in the assay on SNU-C1 (assay number 30, basal), over 20 µM. Besides, in the assay on HCT116 (assay number 25, basal), the IC50 is over 20 µM.
With `Oc1c(Cl)cc(Cl)c(Cl)c1Cc1c(O)c(Cl)cc(Cl)c1Cl` [NCGC00091195-08], the IC50 in the assay with DLD-1 is 0.0157 µM; in the assay on HT-29 it was 0.46 µM; in the assay with SW480, 0.003 µM; in the assay on Colo320, 0.0572 µM; in the assay on RKO, 0.108 µM; with SNU-C1 it was 0.032 µM. The IC50 in the assay with HCT116 is 0.0312 µM.
Consider `CCCCCCOc1ccccc1C(N)=O` [NCGC00095049-04], for which the “IC50/EC50, Basal_Viability ATP DLD-1 (assay number 23)” value in the assay with DLD-1 (basal) came out at 8.6657 µM. Also, the “IC50/EC50, Basal_Viability ATP HT-29 (assay number 28)” value in the assay with HT-29 (basal) is given as over 20 µM. The “IC50/EC50, Basal_Viability ATP SW480 (assay number 24)” value in the assay on SW480 (basal) was over 20 µM. Moreover, the “IC50/EC50, Basal_Viability ATP Colo 320 (assay number 27)” value in the assay on Colo320 (basal) was over 20 µM. In the assay on RKO (basal), the “IC50/EC50, Basal_Viability ATP RKO (assay number 29)” value is listed as over 6.6667 µM. Moreover, the “IC50/EC50, Basal_Viability ATP SNU-C1 (assay number 30)” value in the assay with SNU-C1 (basal) came out at 9.3567 µM. In the assay with HCT116 (basal), the “IC50/EC50, Basal_Viability ATP HCT116 (assay number 25)” value is listed as over 6.6667 µM.

The term IC50 denotes the concentration needed to halve the response being measured.

Values taken from publication PMC4503722, “Novel Phenotypic Outcomes Identified for a Public Collection of Approved Drugs from a Publicly Accessible Panel of Assays” (PLoS ONE, 2015).
